Results from patent US6596772B1, “Phosphate mimics and methods of treatment using phosphatase inhibitors” (Sugen, Inc., priority 1999, dated 2003).
Read-outs that look alike come from different tables or passages of the source.

What was measured:
Test in all cases: PTP IC50 assay, fluorescent substrate DiFMUP
Format in all cases: biochemical
PTP SHP2 = target: T1, PTP SHP2 (Homo sapiens, UniProt Q06124)
T1 construct: The catalytic domain was amplified using the following oligonucleotides; made in house; host or cells: Sf-9 insect cells (pFastBac-G2T)
T1 sequence (Q06124 247-517 limits assumed): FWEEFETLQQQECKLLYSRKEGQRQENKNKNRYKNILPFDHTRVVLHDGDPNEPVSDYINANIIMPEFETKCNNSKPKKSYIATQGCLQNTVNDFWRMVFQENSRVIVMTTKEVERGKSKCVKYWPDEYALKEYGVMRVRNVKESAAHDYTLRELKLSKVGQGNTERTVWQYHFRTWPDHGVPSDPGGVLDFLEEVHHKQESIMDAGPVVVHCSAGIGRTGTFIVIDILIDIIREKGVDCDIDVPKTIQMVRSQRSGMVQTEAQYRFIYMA
Excerpt: SHP-2 cDNA was used as described earlier (Vogel W., et al.,1993, Science, 259:1611-4). The catalytic domain was amplified using the following oligonucleotides 5′oligo: 5′-[…]-3′ (SEQ ID NO: 2) 3′oligo: 5′-[…]-3′ (SEQ ID NO: 3) and subsequently subcloned into BamH1-Xba-1 sites. It was then ligated into pfas Bac-G2T BamH1-Xba-1 sites.
(§1) The following in vitro assay procedure is preferred to determine the level of activity and effect of the different compounds of the present invention on one or more of the PTPs. Similar assays can be designed along the same lines for any PTP using techniques well known in the art.
(§2) The catalytic assays described herein are performed in a 96-well format. The general procedure begins with the determination of PTP optimal pH using a three-component buffer system that minimizes ionic strength variations across a wide range of buffer pH. Next, the Michaelis-Menten constant, or Km, is determined for the substrate 6,8-difluoro-4-methylumbelliferyl phosphate (DiFMUP). This Km value is subsequently used as the substrate reaction concentration for compound screening. Finally, the test PTP is exposed to varying concentrations of compound for fifteen minutes and allowed to react with substrate for ten minutes. The results are plotted as percent inhibition versus compound concentration and the IC50 interpolated from the plot.
(§3) All assays were performed using DiFMUP as substrate. The optimum pH and substrate Km was determined for each PTP used.
(§4) PTPase activity was assayed at 25° C. in a 100-μl reaction mixture containing an appropriate concentration of DiFMUP as substrate. The reaction was initiated by addition of the purified PTP and quenched after 10 min by addition of 1% H2O2/100 mM NaCl. The non-enzymatic hydrolysis of the substrate was corrected by measuring the control without the addition of the enzyme. The amount of DiFMU produced was determined from the increase in the fluorescence (360 nm excitation/460 nm emission) over that of background in the absence of PTPase. To determine the kinetic parameter, Km, the initial velocities were measured at various substrate concentrations and the data were fitted to the Michaelis equation where velocity=(Vmax*[S])/(Km+[S]), and [S]=substrate reaction concentration.
(§5) The effect of the compounds on PTP was evaluated at 25° C. using DiFMUP as substrate. PTP was pre-incubated for fifteen minutes with various concentrations of compound. Substrate was then added at a fixed concentration (usually equal to the Km previously calculated). After 10 minutes, the reaction was quenched. The hydrolysis of DiFMUP was followed as described above. The percent inhibition was calculated as follows: Percent Inhibition=[(control signal−compound signal)/control signal]×100%. The IC50 was then determined by interpolation of a percent inhibition versus compound concentration plot.
(§6) Plasmids designed for bacterial GST-PTP fusion protein expression were derived by insertion of PCR-generated human PTP fragments into pGEX vectors (Pharmacia Biotech). Several of these constructs were then used to subclone phosphatases into pFastBac-1 for expression in Sf-9 insect cells. Oligonucleotides used for the initial amplification of PTP genes are as described above. The cDNAs were prepared using the Gilbo BRL superscript preamplification system on RNAs purchased from Clontech.

PTP EPSILON = target: T2, PTP EPSILON (Homo sapiens, UniProt P23469)
T2 construct: made in house; host or cells: Sf-9 insect cells (pFastBac-G2T); a pGEX 6P-1 construct also existed
T2 sequence (P23469 80-393 limits assumed): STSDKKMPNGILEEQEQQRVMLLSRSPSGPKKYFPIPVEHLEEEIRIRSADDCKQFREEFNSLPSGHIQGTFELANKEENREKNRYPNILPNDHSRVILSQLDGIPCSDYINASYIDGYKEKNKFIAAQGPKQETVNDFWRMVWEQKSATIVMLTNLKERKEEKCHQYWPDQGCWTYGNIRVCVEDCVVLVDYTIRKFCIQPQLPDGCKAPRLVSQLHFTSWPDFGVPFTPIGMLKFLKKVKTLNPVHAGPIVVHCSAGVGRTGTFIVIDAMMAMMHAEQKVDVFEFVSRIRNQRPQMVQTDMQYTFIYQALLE
Excerpt: The PTPepsilon cDNA was amplified from human placenta single-strand cDNA (Clontech RNA) using the following oligonucleotides: 5′oligo: 5′-[…]-3′ (SEQ ID NO: 6) 3′oligo: 5′-[…]-3′ (SEQ ID NO: 7) After cloning this PCR product into the Bam HI/Xho I sites of pGEX 6P-1, this phosphatase was subcloned using the same restriction sites in pFastBac-G2T.
as §1, §2, §3, §4, §5, §6

PTP 1B = target: T3, PTP 1B (Homo sapiens, UniProt P18031)
T3 construct: made in house; host or cells: Sf-9 insect cells (pFastBac-G2T)
T3 sequence (P18031 1-435): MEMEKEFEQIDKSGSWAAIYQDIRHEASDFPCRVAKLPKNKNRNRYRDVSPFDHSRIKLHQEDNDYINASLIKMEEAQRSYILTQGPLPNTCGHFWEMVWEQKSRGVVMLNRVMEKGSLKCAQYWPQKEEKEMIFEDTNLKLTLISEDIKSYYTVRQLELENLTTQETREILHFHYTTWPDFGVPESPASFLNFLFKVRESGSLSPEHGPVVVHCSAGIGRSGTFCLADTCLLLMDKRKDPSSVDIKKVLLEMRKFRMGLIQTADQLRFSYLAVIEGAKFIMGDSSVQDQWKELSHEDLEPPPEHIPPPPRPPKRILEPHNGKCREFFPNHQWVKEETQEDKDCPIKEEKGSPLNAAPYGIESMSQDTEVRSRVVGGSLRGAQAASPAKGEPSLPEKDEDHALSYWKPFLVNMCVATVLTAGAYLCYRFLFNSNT
Excerpt: The PTP1b cDNA was amplified from human placenta single strand cDNA (Clontech RNA) using the following oligonucleotides: 5′oligo: 5′-[…] (SEQ ID NO: 4) 3′oligo: 5′-[…] (SEQ ID NO: 5) It was subsequently ligated into pFasBac G2TBamH1Xba-1 sites.
as §1, §2, §3, §4, §5, §6

[1] = DiFMUP as substrate, 25° C., read-out: PTP IC50 SHP2
[2] = DiFMUP as substrate, 25° C., read-out: PTP IC50 Epilson
[3] = DiFMUP as substrate, 25° C., read-out: PTP IC50 1B

IC50 (PTP SHP2; [1]) [µM]	IC50 (PTP EPSILON; [2]) [µM]	IC50 (PTP 1B; [3]) [µM]	SMILES	IC50 (PTP SHP2) [µM]	IC50 (PTP EPSILON) [µM]	IC50 (PTP 1B) [µM]
> 100	> 100	> 100	CCCCNC(=O)C(c1ccc(S(=O)(=O)C(F)(F)F)cc1)N(CCO)C(=O)c1ccccc1 (stereo not drawn) [Example 45, N-[Butylcarbamoyl-(4-trifluoromethanesulfonyl-phenyl)-methyl]-N-(2-hydroxy-ethyl)-benzamide]			
> 100	> 100	> 100	CCOC(=O)CNC(=O)C(c1ccc(S(=O)(=O)C(F)(F)F)cc1)N(C(C)=O)C1CC1 (stereo not drawn) [Example 46, [2-(Acetyl-cyclopropyl-amino)-2-(4-trifluoromethanesulfonyl-phenyl)-acetylamino]-acetic acid ethyl ester]			
10.6	9.3	8.3	Cc1cccc(C)c1NC(=O)C(c1ccc(S(=O)(=O)C(F)(F)F)cc1)N(C(=O)c1ccccc1)C1CCCCC1 (stereo not drawn) [Example 49, N-Cyclohexyl-N-[(2,6-dimethyl-phenylcarbamoyl)-(4-trifluoromethanesulfonyl-phenyl)-methyl]-benzamide]			
> 100	> 100	> 100	CCCN(C(C)=O)C(C(=O)NCC(=O)OCC)c1ccc(S(=O)(=O)C(F)(F)F)cc1 (stereo not drawn) [Example 50, [2-(Acetyl-propyl-amino)-2-(4-trifluoromethanesulfonyl-phenyl)-acetylamino]-acetic acid ethyl ester]			
> 100	> 100	> 100	CCOC(=O)CNC(=O)C(c1ccc(S(=O)(=O)C(F)(F)F)cc1)N(C(C)=O)C1CCCCC1 (stereo not drawn) [Example 51, [2-(Acetyl-cyclohexyl-amino)-2-(4-trifluoromethanesulfonyl-phenyl)-acetylamino]-acetic acid ethyl ester]			
8	64.5	> 20	O=C(O)COc1ccc(S(=O)(=O)c2ccc(Oc3ccc(S(=O)(=O)C(F)(F)F)cc3[N+](=O)[O-])cc2)cc1 [Example 52, {4-[4-(2-Nitro-4-trifluoromethanesulfonyl-phenoxy)-benzenesulfonyl]-phenoxy}-acetic acid]			
1.5	22.2	1.5	O=C(O)c1ccc(OCCOc2ccc(S(=O)(=O)C(F)(F)F)cc2[N+](=O)[O-])cc1 [Example 53, 4-[2-(2-Nitro-4-trifluoromethanesulfonyl-phenoxy)-ethoxy]-benzoic acid]			
4.4	29.1	9.4	O=[N+]([O-])c1ccccc1NCC(O)COc1ccc(S(=O)(=O)C(F)(F)F)cc1[N+](=O)[O-] (stereo not drawn) [Example 58, 1-(2-Nitro-phenylamino)-3-(2-nitro-4-trifluoromethanesulfonyl-phenoxy)-propan-2-ol]			
4.8	50.9	16.2	O=[N+]([O-])c1ccc(NCC(O)COc2ccc(S(=O)(=O)C(F)(F)F)cc2[N+](=O)[O-])cc1 (stereo not drawn) [Example 60, 1-(4-Nitro-phenylamino)-3-(2-nitro-4-trifluoromethanesulfonyl-phenoxy)-propan-2-ol]			
> 100	> 20	> 100	O=C(O)c1cc2cc(NS(=O)(=O)C(F)(F)F)ccc2[nH]1 [Example 77, 5-Trifluoromethanesulfonylamino-1H-indole-2-carboxylic acid]			

Continued, compound first:

SMILES	IC50 (PTP SHP2; [1]) [µM]	IC50 (PTP EPSILON; [2]) [µM]	IC50 (PTP 1B; [3]) [µM]	IC50 (PTP SHP2) [µM]	IC50 (PTP EPSILON) [µM]	IC50 (PTP 1B) [µM]
CCOC(=O)c1cccc(NC(=O)c2ccc(-c3nc4cc(S(=O)(=O)C(F)(F)F)ccc4n3CC)cc2)c1 [Example 39, 3-[4-(1-Ethyl-5-trifluoromethanesulfonyl-1H-benzoimidazol-2-yl)-benzoylamino]-benzoic acid ethyl ester]	1.2	1.5	3.7			
CCn1c(-c2ccc(C(=O)NCCN3CCCC3)cc2)nc2cc(S(=O)(=O)C(F)(F)F)ccc21 [Example 40, 4-(1-Ethyl-5-trifluoromethanesulfonyl-1H-benzoimidazol-2-yl)-N-(2-pyrrolidin-1-yl-ethyl)-benzamide]	> 100	> 100	> 20			
CCNC(=O)c1ccc(-c2nc3cc(S(=O)(=O)C(F)(F)F)ccc3n2CC)cc1 [Example 41, N-Ethyl-4-(1-ethyl-5-trifluoromethanesulfonyl-1H-benzoimidazol-2-yl)-benzamide]	19	13.5	> 20			
CCn1c(C(=O)O)nc2cc(S(=O)(=O)C(F)(F)F)ccc21 [Example 42, 1-Ethyl-5-trifluoromethanesulfonyl-1H-benzoimidazole-2-carboxylic acid]	> 100	98	> 20			
CCCCN(C(=O)c1ccccc1)C(C(=O)NCC(=O)OC)c1ccc(S(=O)(=O)C(F)(F)F)cc1 (stereo not drawn) [Example 43, [2-(Benzoyl-butyl-amino)-2-(4-trifluoromethanesulfonyl-phenyl)-acetylamino]-acetic acid methyl ester]	74.6	53.9	> 20			
CCCCNC(=O)C(c1ccc(S(=O)(=O)C(F)(F)F)cc1)N(Cc1ccccc1)C(=O)c1ccccc1 (stereo not drawn) [Example 44, N-Benzyl-N-[butylcarbamoyl-(4-trifluoromethanesulfonyl-phenyl)-methyl]-benzamide]	22.7	19	15.8			
O=[N+]([O-])c1ccc(NCC(COc2ccc(S(=O)(=O)C(F)(F)F)cc2[N+](=O)[O-])Oc2ccc(S(=O)(=O)C(F)(F)F)cc2[N+](=O)[O-])cc1 (stereo not drawn) [Example 59, [2,3-Bis-(2-nitro-4-trifluoromethanesulfonyl-phenoxy)-propyl]-(4-nitro-phenyl)-amine]				0.2	38.1	0.9
O=[N+]([O-])c1cc(S(=O)(=O)C(F)(F)F)ccc1Oc1ccc(S(=O)(=O)c2ccc(Oc3ccc(S(=O)(=O)C(F)(F)F)cc3[N+](=O)[O-])cc2)cc1 [Example 63, Bis-{[4-(2-nitro-4-trifluoromethanesulfonyl)-phenoxy]-phenyl}sulfone]				0.4	2.4	0.7
